Source: patent US5945402A (Genetech, Inc., priority 1995, dated 1999)

Legend:
[1] = RP-HPLC stability of topical relaxin (3% methylcellulose gel); assay type: physicochemical; details: in contrast to shortened B-chain human relaxin
Description: The RP-HPLC method used for analyzing the liquid relaxin formulation, described in Example I, was modified for use with topical relaxin samples. Due to the high viscosity of the gel, samples were diluted ten-fold with water, vortexed for ^~ 5 minutes to homogenize the gel, and left undisturbed to let the bubbles rise. Analysis of these samples was performed by injecting 250 μl onto a C4-300 SynChropak (4.6×250 mm) column at room temperature. The initial equilibration buffer was 18% acetonitrile, 0.1% trifluoroacetic acid. The elution was carried out by running a 1%/min. increasing linear acetonitrile gradient to a final concentration of 45% acetonitrile after 30 minutes. The flow rate was held constant at 1.0 ml/min. and the absorbance was monitored at 214 nm. The "slowdown" step (the time it takes to draw the viscous gel into the metering device) was increased from […].
Three significant stability experiments were performed on the topical relaxin formulation. The first was to measure the stability of these preparations after being left out at room temperature for five weeks. The sample remained in the original syringe, subject to the fluctuations of temperature and light.
The second study was a measure of the stability of topical relaxin under well controlled conditions at 5° C. and 25° C. […]

cervix [2] = details: 2-mg dose in methylcellulose gel, MacLennan et al. (1981); cited from earlier work
cervix [3] = details: 3000 units in the cervical os, Perezgrovas and Anderson (1982); cited from earlier work
rabbit cervix = experiment: Efficacy on ripening of the rabbit cervix, intravaginal gel; assay type: in vivo; details: initial study, 300 μg/ml topical gel, 0.5 ml intravaginally, eighteen hours after application
Description: Mature pregnant female New Zealand rabbits weighing 4.5 to 6.0 kg were studied. […] Both hormones were applied intravaginally by means of a syringe and a catheter in a volume of 0.5 ml. Control animals received the vehicle alone. After 16-18 hours, the animals were sacrificed using a lethal dose of pentobarbital. […] Paraffin sections were cut and stained with hematoxylin/eosin and alcian blue PAS. Sections were evaluated for general morphology, and specifically for the degree of separation of muscular tissue and collagen fibrils in the submucosa and for the presence of characteristic PAS positive giant cells, which are multinucleate cells of macrophage origin that normally infiltrate the cervix during labor. The measurement of giant cells is accomplished using the procedure described by MacLennan et al., Am J. Obstet. Gynecol., 152: 691-696 (1985).

porcine relaxin
degradation of 600 μg/ml porcine relaxin in 3% Methocel gel by HPLC [1]: degraded very little
effect on cervical score (cervix [2]): improve the cervical score
time to increased dilatation of the cervix after infusion (cervix [3]): ≤ 8 h
cervical ripening, morphology of the pregnant cervix (rabbit cervix): significant dilation and cervical ripening were observed
